Test [1] deals with Mus musculus. The experiment in a line: Hepatoprotective activity against cadmium-induced hepatic damage in Swiss albino mouse assessed as inhibition of cadmium-induced LPO level at 3 mg/kg, po administered 7 days prior to first cadmium treatment followed by administration for 20 days concomitantly with cadmium. Also noted: dose 3 mg/kg. The test is classed as functional, organism-based.

Test [2] concerns Mus musculus. Description: Hepatoprotective activity against cadmium-induced oxidative damage in Swiss albino mouse assessed as inhibition of cadmium-induced GSH depletion at 3 mg/kg, po administered for 20 days concomitantly with cadmium. Also noted: dose 3 mg/kg. It counts as functional, organism-based.
For test [3], the system named is Mus musculus. Description: Hepatoprotective activity against cadmium-induced oxidative damage in Swiss albino mouse assessed as inhibition of cadmium-induced GSH depletion at 3 mg/kg, po administered 7 days prior to first cadmium treatment followed by administration for 20 days concomitantly with cadmium. The test is classed as functional, organism-based. Also noted: dose 3 mg/kg.

For test [4], the system named is Mus musculus. The experiment in a line: Hepatoprotective activity against cadmium-induced oxidative damage in Swiss albino mouse assessed as inhibition of cadmium-induced GST activity depletion at 3 mg/kg, po administered for 20 days concomitantly with cadmium. It counts as functional, organism-based. Set-up: dose 3 mg/kg.
Test [5] concerns Mus musculus. The experiment in a line: Hepatoprotective activity against cadmium-induced oxidative damage in Swiss albino mouse assessed as inhibition of cadmium-induced GST activity depletion at 3 mg/kg, po administered 7 days prior to first cadmium treatment followed by administration for 20 days concomitantly with cadmium. It counts as functional, organism-based. Also noted: dose 3 mg/kg.

Test [6] concerns Mus musculus. Description: Hepatoprotective activity against cadmium-induced oxidative damage in Swiss albino mouse assessed as inhibition of cadmium-induced CAT activity depletion at 3 mg/kg, po administered for 20 days concomitantly with cadmium. Also noted: dose 3 mg/kg. It counts as functional, organism-based.
The test system of test [7] is Mus musculus. The experiment in a line: Hepatoprotective activity against cadmium-induced oxidative damage in Swiss albino mouse assessed as inhibition of cadmium-induced CAT activity depletion at 3 mg/kg, po administered 7 days prior to first cadmium treatment followed by administration for 20 days concomitantly with cadmium. The test is classed as functional, organism-based. Set-up: dose 3 mg/kg.

The subject of test [8] is Mus musculus. The experiment in a line: Hepatoprotective activity against cadmium-induced oxidative damage in Swiss albino mouse assessed as inhibition of cadmium-induced SOD activity depletion at 3 mg/kg, po administered for 20 days concomitantly with cadmium. The test is classed as functional, organism-based. Also noted: dose 3 mg/kg.
Test [9] relates to Mus musculus. The experiment in a line: Hepatoprotective activity against cadmium-induced oxidative damage in Swiss albino mouse assessed as inhibition of cadmium-induced SOD activity depletion at 3 mg/kg, po administered 7 days prior to first cadmium treatment followed by administration for 20 days concomitantly with cadmium. It counts as functional, organism-based. Also noted: dose 3 mg/kg.

The subject of test [10] is Mus musculus. The experiment in a line: Hepatoprotective activity against cadmium-induced hepatic damage in Swiss albino mouse assessed as inhibition of cadmium-induced elevation in serum AST level at 3 mg/kg, po administered for 20 days concomitantly with cadmium. Also noted: dose 3 mg/kg. It counts as functional, organism-based.
Test [11] relates to Mus musculus. Description: Hepatoprotective activity against cadmium-induced hepatic damage in Swiss albino mouse assessed as inhibition of cadmium-induced elevation in serum AST level at 3 mg/kg, po administered 7 days prior to first cadmium treatment followed by administration for 20 days concomitantly with cadmium. Also noted: dose 3 mg/kg. The test is classed as functional, organism-based.

Test [12] has as its system Mus musculus. Description: Hepatoprotective activity against cadmium-induced hepatic damage in Swiss albino mouse assessed as inhibition of cadmium-induced elevation in serum ALT level at 3 mg/kg, po administered for 20 days concomitantly with cadmium. Also noted: dose 3 mg/kg. It counts as functional, organism-based.
Test [13] has as its system Mus musculus. Description: Hepatoprotective activity against cadmium-induced hepatic damage in Swiss albino mouse assessed as inhibition of cadmium-induced elevation in serum ALT level at 3 mg/kg, po administered 7 days prior to first cadmium treatment followed by administration for 20 days concomitantly with cadmium. The test is classed as functional, organism-based. Set-up: dose 3 mg/kg.

In test [14] the test system is Mus musculus. Description: Renoprotective activity against cadmium-induced renal damage in Swiss albino mouse assessed as inhibition of cadmium-induced BUN level […] at 3 mg/kg, po administered for 20 days concomitantly with cadmium. It counts as functional, organism-based. Set-up: dose 3 mg/kg.
Test [15] deals with Mus musculus. Description: Renoprotective activity against cadmium-induced renal damage in Swiss albino mouse assessed as inhibition of cadmium-induced BUN level […] at 3 mg/kg, po administered 7 days prior to first cadmium treatment followed by administration for 20 days concomitantly with cadmium. Set-up: dose 3 mg/kg. It counts as functional, organism-based.
Test [16] deals with Mus musculus. The experiment in a line: Renoprotective activity against cadmium-induced renal damage in Swiss albino mouse assessed as inhibition of cadmium-induced creatinine level change at 3 mg/kg, po administered for 20 days concomitantly with cadmium. The test is classed as functional, organism-based. Set-up: dose 3 mg/kg.
In test [17] the test system is Mus musculus. The experiment in a line: Renoprotective activity against cadmium-induced renal damage in Swiss albino mouse assessed as inhibition of cadmium-induced creatinine level change at 3 mg/kg, po administered 7 days prior to first cadmium treatment followed by administration for 20 days concomitantly with cadmium. Also noted: dose 3 mg/kg. It counts as functional, organism-based.

Test [18] has as its system Mus musculus. The experiment in a line: Hepatoprotective activity against cadmium-induced hepatic damage in Swiss albino mouse assessed as ratio of liver weight to body weight at 3 mg/kg, po administered for 20 days concomitantly with cadmium. The test is classed as functional.
Test [19] relates to Mus musculus. The experiment in a line: Hepatoprotective activity against cadmium-induced hepatic damage in Swiss albino mouse assessed as ratio of liver weight to body weight at 3 mg/kg, po administered 7 days prior to first cadmium treatment followed by administration for 20 days concomitantly with cadmium. It counts as functional.
For test [20], the system named is Mus musculus. Description: Hepatoprotective activity against cadmium-induced hepatic damage in Swiss albino mouse assessed as inhibition of cadmium-induced LPO level at 3 mg/kg, po administered for 20 days concomitantly with cadmium bt TBARS assay. The test is classed as functional, organism-based. Set-up: dose 3 mg/kg.
Test [21] relates to Mus musculus. The experiment in a line: Hepatoprotective activity against cadmium-induced hepatic damage in Swiss albino mouse assessed as inhibition of cadmium-induced liver necrosis and inflammation at 3 mg/kg, po administered 7 days prior to first cadmium treatment followed by administration for 20 days concomitantly with cadmium. It counts as functional, organism-based. Set-up: dose 3 mg/kg.

For test [22], the system named is Mus musculus. Description: Hepatoprotective activity against cadmium-induced hepatic damage in Swiss albino mouse assessed as inhibition of cadmium-induced liver necrosis and inflammation at 3 mg/kg, po administered for 20 days concomitantly with cadmium. The test is classed as functional, organism-based. Set-up: dose 3 mg/kg.

For four compounds, inhibition and Ratio results are on record in ChEMBL document CHEMBL1208668, “Synthesis and biological evaluation of novel spiro 6-methoxytetralin-1,3'-pyrrolidine based organoselenocyanates against cadmium-induced oxidative and hepatic damage in mice” (2010).

Active and inactive are the calls of the source. No cut-off for these calls is given here.

On to `COc1ccc2c(c1)CCCC21CC(=O)N(CCCC[Se]C#N)C1=O` (stereo not drawn), for which the inhibition entry in the test on Mus musculus [1], in the test on Mus musculus [2], in the test with Mus musculus [3], with Mus musculus [4], in the test with Mus musculus [5] and in the test with Mus musculus [6] was “Active” each time. Besides, the inhibition entry in the test with Mus musculus [7], in the test with Mus musculus [10], with Mus musculus [11], with Mus musculus [12], in the test on Mus musculus [13] and in the test on Mus musculus [14] was “Active” in each case. In addition, the inhibition result in the test with Mus musculus [15] and in the test on Mus musculus [20] was “Active” throughout. Further, the inhibition entry with Mus musculus [8], in the test on Mus musculus [9], in the test with Mus musculus [16] and in the test with Mus musculus [17] was “inactive” in each case. The Ratio was 0.0487 in the test on Mus musculus [18] and 0.0466 in the test on Mus musculus [19].

For `COc1ccc2c(c1)CCCC21CC(=O)N(CCCCC[Se]C#N)C1=O` (stereo not drawn), the inhibition entry in the test with Mus musculus [1], in the test with Mus musculus [2], with Mus musculus [3], with Mus musculus [4], in the test with Mus musculus [5] and in the test with Mus musculus [6] was “Active” in each case. Besides, the inhibition result with Mus musculus [7], in the test with Mus musculus [10], with Mus musculus [11], with Mus musculus [12], in the test with Mus musculus [13] and with Mus musculus [14] was “Active” in each case. Moreover, the inhibition entry in the test on Mus musculus [15], with Mus musculus [21], in the test with Mus musculus [22] and in the test on Mus musculus [20] was “Active” each time. For the same compound, the inhibition result in the test with Mus musculus [8], in the test on Mus musculus [9], in the test with Mus musculus [16] and in the test on Mus musculus [17] was “inactive” throughout. The Ratio in the test with Mus musculus [18] was 0.047; in the test with Mus musculus [19], 0.0428.

On to `COc1ccc2c(c1)CCCC21CC(=O)N(CCC[Se]C#N)C1=O` (stereo not drawn), for which the inhibition entry in the test with Mus musculus [1], with Mus musculus [4], with Mus musculus [5], in the test with Mus musculus [10], in the test on Mus musculus [11] and with Mus musculus [15] was “Active” in each case. The inhibition result with Mus musculus [20] was “Active”. Besides, the inhibition result in the test with Mus musculus [8], in the test with Mus musculus [9], in the test with Mus musculus [12], in the test with Mus musculus [13], in the test on Mus musculus [16] and in the test on Mus musculus [17] was “inactive” each time. For the same compound, the results for the Ratio with Mus musculus [18] and with Mus musculus [19] were 0.0483 and 0.0474, respectively.

Consider `COc1ccc2c(c1)CCCC21CC(=O)N(CC[Se]C#N)C1=O` (stereo not drawn), for which the inhibition entry in the test on Mus musculus [1], with Mus musculus [4], in the test with Mus musculus [5], with Mus musculus [10], with Mus musculus [11] and in the test with Mus musculus [15] was “Active” each time. The inhibition result in the test on Mus musculus [20] was “Active”. In addition, the inhibition result with Mus musculus [2], in the test with Mus musculus [3], in the test with Mus musculus [8], with Mus musculus [9], in the test on Mus musculus [12] and with Mus musculus [13] was “inactive” in each case. The inhibition entry in the test with Mus musculus [16] and with Mus musculus [17] was “inactive” in each case. The Ratio in the test on Mus musculus [18] came to 0.0525.
